# Results published in patent US8927517B2, “Factors controlling skin and hair color” (Kao Corporation, priority 2012, dated 2015).
# Assays:
# [1] = tested on: Skin tissues from a donor; experiment: Lightness (L* value) of cultured human skin tissue with autophagy-regulating agent; type: cell-based; details: verapamil 10 μM, rapamycin 1 μM or HCQ 10 μM; cultured 8 days; colorimeter; FIG. 10
# Description: Skin tissues were collected from a donor, and were then cultured in the presence or absence of an autophagy inducer verapamil (10 μM) or rapamycin (1 μM), or an autophagy inhibitor hydroxychloroquine (HCQ, 10 μM). After completion of the culture for 8 days, the lightness (L* value) of the cultured skin was measured with a colorimeter (Colorimeter; cyberDERM).
# [2] = tested on: 3D-HSSs (three-dimensional human skin substitutes containing NHEK and NHEM); experiment: 3D-HSSs cultured with autophagy inducer or inhibitor (photographs, Western blotting); type: cell-based; details: HCQ 10 μM with endothelin-1 and SCF, 14 days
# Description: Three-dimensional culture human skin models (3D-human skin substitutes; 3D-HSSs) were purchased from MatTek Co. (MEL-300A or B), and they were then maintained at 37° C. in 5% CO2 in EPI-100NMM-113 medium (MatTek Co.) according to a production manual included therewith.
# 3D-HSSs (three-dimensional human skin substitutes, reconstituted epidermal models containing NHEK and NHEM) were cultured together with an autophagy inducer verapamil (10 μM) or rapamycin (1 μM) for 14 days. The medium was exchanged with a fresh one every other day. After completion of the culture, Western blotting analysis was carried out on the culture, using a p62-specific antibody (MBL International) and an LC3-specific antibody (Cosmo Bio Co. Ltd. or MBL International) by the same procedures as those applied in Reference Example 1.
# On the other hand, 3D-HSSs were cultured together with an autophagy inhibitor hydroxychloroquine (HCQ, 10 μM) in the presence of endothelin-1 and SCF for 14 days, and Western blotting analysis was then carried out on the culture.
Compound,lightness (L* value) of the cultured skin [1],darkening of 3D-HSSs ([2]; FIG. 9C),amount of p62 ([2]; FIG. 9D)
COc1ccc(CCN(C)CCCC(C#N)(c2ccc(OC)c(OC)c2)C(C)C)cc1OC (stereo not shown) [verapamil],increased,–,–
CCN(CCO)CCCC(C)Nc1ccnc2cc(Cl)ccc12 (stereo not shown) [hydroxychloroquine],decreased,became darkened,increased
